# Data published in ChEMBL document CHEMBL1158277, “N -(Indol-3-ylethyl)-2-hydroxy-3-methylpentanamide, a Novel Indole Derivative from Xenorhabdus nematophilus” (J Nat Prod, 1996).
# Activity calls are given as the source filed them. No cut-off for these calls is given here.
# Test system: Bacillus subtilis
# Experiment: Antibacterial activity against Bacillus subtilis at 100 ug/mL
# Format: functional, organism-based
structure (smiles),measurement,value
CC[C@H](C)[C@@H](O)C(=O)NCCc1c[nH]c2ccccc12,Activity,inactive
